Data as given in US9452985B2, “Tau imaging probe” (GE Healthcare Limited, priority 2010, dated 2016).

Tests used:
K18-ΔK280 aggregates = K18-ΔK280 aggregates (Homo sapiens (Human), UniProt P10636, DEL597-597); assay: Saturation binding test of THK-5105; settings: [^18F] THK-5105 0.1 to 100 nM, K18-ΔK280 aggregates 200 nM, room temperature, one hour; read-out: dissociation constant Kd
Procedure: Regarding the binding of tau imaging probes to tau protein aggregates, a binding test was carried out and evaluated using a K18-ΔK280 construct which contained a 4-repeat structure involved in the formation of beta-sheet structures in the htau40 protein. For K18-ΔK280 (Martin von Bergen et al., THE JOURNAL OF BIOLOGICAL CHEMISTRY (2001), vol. 276, pp. 48165-48174; M. Goedert et al., NEURON (1989), vol. 3, pp. 519-526), an artificial gene fragment which was prepared based on its amino acid sequence was cloned into a pET-3a vector, the resulting plasmid was used to transform Escherichia coli BL21 (DE3) competent cells for protein expression, and the recombinant Escherichia coli cell was cultured to express K18-ΔK280. […]
K18-ΔK280 aggregates were made by preparing 20 μM PBS (pH 7.4) and incubating the K18-ΔK280 in the PBS at 37° C. for 4 days. The state where beta-sheet structures in K18-ΔK280 aggregates were formed was ascertained by thioflavin S fluorescence binding test. […]
In the binding test of [^18F] […] THK-5105 to K18-ΔK280 aggregates was calculated from the radioactivity of the filter which was measured on a gamma counter (AccuFLEX γ7000, Aloka). Non-specific binding was determined by adding unlabeled THK-5105 (at a final concentration of 2 μM) to the reaction system and performing experiments in a similar way.

neurofibrillary tangles = assay: Staining test on brain section of Alzheimer's disease patients; format: binding, human; settings: 100 μM solution in 50% ethanol, 10 minutes, fluorescence microscope
Text: The procedure of staining test on the compounds of the present invention on the brain section of Alzheimer's disease patients is described below:
(1) We used the brain specimens of the temporal lobe or hippocampus from patients who were definitely diagnosed as having Alzheimer's disease pathology. The specimens were obtained from Choju Medical Institute, Fukushimura Hospital, our collaborating research institute, and the consent for use for research purposes was obtained from the patients' bereaved family (Fukushimura Hospital, Ethics Committee Approval No. 20).
(2) The paraffin-embedded brain tissue was sliced to 6 or 8 μm thickness, extended on a slide glass, and dried. The paraffinized brain section was deparaffinized by washing with xylene for 10 minutes×2, 100% ethanol for 5 minutes×2, 90% ethanol for 5 minutes, and running water for 10 minutes in this order.
(3) As a pretreatment for staining with the compounds of the present invention, the treatment to remove autofluorescence with lipofuscin was performed. First, the paraffinized brain section was immersed in 0.25% KMnO4 solution for 20 minutes. It was washed with PBS for 2 minutes twice, immersed in a 0.1% K2S2O5/oxalic acid solution for approximately 5 minutes, and further washed with PBS for 2 minutes 3 times.
(4) From 100 μM solution of the compounds of the present invention dissolved in 50% ethanol, approximately 150 μl was dropped on the section to react for 10 minutes. After being immersed in tap water 5 times, it was mounted with Flour Save Reagent (Calbiochem) and examined with a fluorescence microscope (Nikon, ECLIPSE 80i). The images were taken with a digital camera (Nikon, Dxin1200F or Photometrics, Cool SNAP ES).

[1] = tested on: neurofibrillary tangles (tau protein); assay: Autoradiography experiments using [^18F] THK-5105, [^18F] THK-5117 and [^18F] THK-5125; format: binding, human; settings: hippocampus section and adjacent sections, higher magnification images
Procedure: Paraffin-embedded sections of the brain from an Alzheimer's disease patient were deparaffinized, and then immersed in PBS for 10 minutes. Approximately 400 μCi/ml of each of [^18F] THK-5105, [^18F] THK-5117, and [^18F] THK-5125 was added dropwise to deparaffinized sections and allowed to react for 10 minutes at room temperature. After that, the sections were immersed in distilled water for 2 minutes, shaken lightly in 50% EtOH for 2 minutes, immersed again in distilled water for 2 minutes, and dried in a paraffin stretching device. The section was left overnight in contact with an imaging plate. Next day, the image was read with a BAS 5000 (Fujifilm Corporation). In addition, adjacent sections were immunostained with anti-phosphorylated tau antibody (AT8).

Chain of K18-ΔK280 aggregates (P10636 other isoform, or with tags, fused parts or gaps del 597-597): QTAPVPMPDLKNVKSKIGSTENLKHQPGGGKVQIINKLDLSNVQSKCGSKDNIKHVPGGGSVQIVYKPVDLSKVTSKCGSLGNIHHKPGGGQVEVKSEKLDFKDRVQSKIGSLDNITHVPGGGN

Kd (K18-ΔK280 aggregates): 3.9 nM
Compound: CN(C)c1ccc(-c2ccc3cc(OCC(O)CF)ccc3n2)cc1 (stereo not drawn) [THK-5105, 6-[(3-fluoro-2-hydroxy)propoxy]-2-(4-dimethylaminophenyl)quinoline]
binding to neurofibrillary tangles in the brain section of Alzheimer's disease patients (staining test) (neurofibrillary tangles): bind to neurofibrillary tangles specifically and selectively | correspondence of autoradiography / unlabeled staining image with anti-phosphorylated tau antibody (AT8) immunostaining [1]: corresponded well with the image of immunostaining with the anti-phosphorylated tau antibody
